The text below walks through data of patent US20220054469A1, “FARNESOID X RECEPTOR AGONISTS AND USES THEREOF” (Metacrine, Inc., priority 2018, published 2022).

The target in this test is T1, hFXR (Homo sapiens, UniProt Q96RI1).
T1 construct: expressed in transfected cells; host or cells: CV-1 cells
T1 sequence (Q96RI1 1-486): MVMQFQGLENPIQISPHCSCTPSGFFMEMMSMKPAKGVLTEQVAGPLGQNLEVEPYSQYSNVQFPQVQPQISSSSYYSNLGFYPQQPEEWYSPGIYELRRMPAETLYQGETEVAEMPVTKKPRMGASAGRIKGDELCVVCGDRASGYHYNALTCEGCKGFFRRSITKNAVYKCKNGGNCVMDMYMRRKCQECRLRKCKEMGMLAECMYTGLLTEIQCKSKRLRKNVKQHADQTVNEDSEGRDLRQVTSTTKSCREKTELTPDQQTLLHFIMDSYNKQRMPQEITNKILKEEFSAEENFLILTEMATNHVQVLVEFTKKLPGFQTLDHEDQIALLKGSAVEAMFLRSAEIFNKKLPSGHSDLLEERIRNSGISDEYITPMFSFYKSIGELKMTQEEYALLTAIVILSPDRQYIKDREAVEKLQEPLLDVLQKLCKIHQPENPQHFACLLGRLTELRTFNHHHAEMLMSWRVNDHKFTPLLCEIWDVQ
T1 sequence (P19793 1-462 partner): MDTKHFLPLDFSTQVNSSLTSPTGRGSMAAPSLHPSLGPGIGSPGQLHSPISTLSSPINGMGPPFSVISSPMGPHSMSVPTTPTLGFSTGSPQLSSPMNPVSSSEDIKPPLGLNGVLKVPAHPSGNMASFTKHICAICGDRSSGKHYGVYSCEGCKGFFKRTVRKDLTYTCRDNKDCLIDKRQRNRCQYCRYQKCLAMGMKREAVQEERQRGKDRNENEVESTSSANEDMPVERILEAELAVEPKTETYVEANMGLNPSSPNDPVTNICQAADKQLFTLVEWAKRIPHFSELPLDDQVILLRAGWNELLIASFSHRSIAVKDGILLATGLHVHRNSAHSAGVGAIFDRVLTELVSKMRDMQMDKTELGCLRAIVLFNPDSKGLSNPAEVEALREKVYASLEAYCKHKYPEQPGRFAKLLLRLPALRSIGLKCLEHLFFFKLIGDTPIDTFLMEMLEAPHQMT
The test can be described thus: In Vitro FXR Assay (TK). The format is cell-based. The settings on record: CV-1 cells transfected with hFXR, hRXR, TK-ECRE-luc and pCMX-YFP; incubated with compound for 18 hrs; luminescence. The method, then:
Example B-1: In Vitro FXR Assay (TK)
CV-1 cells were seeded at a density of 2,000,000 cells in a T175 flask with DMEM+10% charcoal double-stripped FBS and incubated at 37° C. in 5% CO2 for 18 h (O/N).
After 18 h of incubation, the medium in the T175 flask was changed with fresh DMEM+10% charcoal super-stripped serum. In a polypropylene tube, 2500 μL OptiMEM (Life Technologies, Cat #31985-062) was combined with expression plasmids for hFXR, hRXR, TK-ECRE-luc and pCMX-YFP. The tube was then briefly vortexed and incubated at room temperature for 5 minutes. Transfection reagent (X-tremeGENE HP from Roche, Cat #06 366 236 001) was added to the OptiMEM/plasmid mixture vortexed and incubated at room temperature for 20 minutes. Following incubation, the transfection reagent/DNA mixture complex was added to cells in the T175 flask and the cells were incubated at 37° C. in 5% CO2 for 18 h (O/N).
Compounds were serially diluted in DMSO and added to transfected CV-1 cells. The cells were then incubated for 18 hrs. The next day cells were lysed and examined for luminescence.

In general, EC50 refers to the concentration that produces a half-maximal response.

As to `COc1ncc(C23CCC(CN(c4cccc(-c5cnn(C(C)(C)C)c5)c4)C(=O)[C@H]4CC[C@H](CC(=O)O)CC4)(CC2)CC3)cc1C` [Compound 2.07, trans-2-(4-((3-(1-(tert-Butyl)-1H-pyrazol-4-yl)phenyl)((4-(6-methoxy-5-methylpyridin-3-yl)bicyclo[2.2.2]octan-1-yl)methyl)carbamoyl)cyclohexyl)acetic acid], the EC50 is at most 50 nM.

Turning to `COc1ccc(C23CCC(CN(c4cccc(-c5cnn(C(C)C)c5)c4F)C(=O)[C@H]4CC[C@H](CC(=O)O)CC4)(CC2)CC3)cc1C` [Compound 2.08, trans-2-(4-((2-Fluoro-3-(1-isopropyl-1H-pyrazol-4-yl)phenyl)((4-(4-methoxy-3-methylphenyl)bicyclo[2.2.2]octan-1-yl)methyl)carbamoyl)cyclohexyl)acetic acid], the EC50 was at most 50 nM.

Take `COc1ccc(C23CCC(CN(c4ccc(F)c(-c5cnn(C(C)C)c5)c4)C(=O)[C@H]4CC[C@H](CC(=O)O)CC4)(CC2)CC3)cc1C` [Compound 2.09, trans-2-(4-((4-Fluoro-3-(1-isopropyl-1H-pyrazol-4-yl)phenyl)((4-(4-methoxy-3-methylphenyl)bicyclo[2.2.2]octan-1-yl)methyl)carbamoyl)cyclohexyl)acetic acid]: the EC50 is at most 50 nM.

Turning to `COc1ccc(C23CCC(CN(c4cc(-c5cnn(C(C)C)c5)c(F)cn4)C(=O)[C@H]4CC[C@H](CC(=O)O)CC4)(CC2)CC3)cc1C` [Compound 2.10, trans-2-(4-((5-Fluoro-4-(1-isopropyl-1H-pyrazol-4-yl)pyridin-2-yl)((4-(4-methoxy-3-methylphenyl)bicyclo[2.2.2]octan-1-yl)methyl)carbamoyl)cyclohexyl)acetic acid], the EC50 is at most 50 nM.

Take `COc1ccc([C@H]2CC[C@H](CN(c3cc(-c4cnc(C(C)C)s4)ccn3)C(=O)[C@H]3CC[C@H](CC(=O)O)CC3)CC2)cc1C` [Compound 2.12, 2-(trans-4-((4-(2-Isopropylthiazol-5-yl)pyridin-2-yl)((trans-4-(4-methoxy-3-methylphenyl)cyclohexyl)methyl)carbamoyl)cyclohexyl)acetic acid]: the EC50 is at most 50 nM.

With `COc1ccc(C23CCC(CN(c4cc(-c5cnn(C(C)C)c5)ncn4)C(=O)[C@H]4CC[C@H](CC(=O)O)CC4)(CC2)CC3)cc1C` [Compound 3, trans-2-(4-((6-(1-Isopropyl-1H-pyrazol-4-yl)pyrimidin-4-yl)((4-(4-methoxy-3-methylphenyl)bicyclo[2.2.2]octan-1-yl)methyl)carbamoyl)cyclohexyl)acetic acid], the EC50 is 50 to 1000 nM.

`COc1ccc(C23CCC(CN(c4cc(-c5cnn(C(C)C)c5)ccn4)C(=O)[C@H]4CC[C@@H](C(=O)O)CC4)(CC2)CC3)cc1C` [Compound 3.01, cis-4-((4-(1-Isopropyl-1H-pyrazol-4-yl)pyridin-2-yl)((4-(4-methoxy-3-methylphenyl)bicyclo[2.2.2]octan-1-yl)methyl)carbamoyl)cyclohexanecarboxylic acid]: the EC50 fell in the range of 50 to 1000 nM.

`COc1ccc(C23CCC(CN(c4cccc(-c5cnn(C(C)C)c5)c4)C(=O)[C@H]4CC[C@H](CC(=O)O)CC4)(CC2)CC3)cc1C` [Compound 3.02, trans-2-(4-((3-(1-Isopropyl-1H-pyrazol-4-yl)phenyl)((4-(4-methoxy-3-methylphenyl)bicyclo[2.2.2]octan-1-yl)methyl)carbamoyl)cyclohexyl)acetic acid]: the EC50 was at most 50 nM.

As for `COc1ccc([C@H]2CC[C@H](CN(c3cccc(-c4cnn(C(C)(C)C)c4)c3)C(=O)[C@H]3CC[C@H](CCC(=O)O)CC3)CC2)cc1C` [Compound 3.03, trans-3-(4-((3-(1-(tert-Butyl)-1H-pyrazol-4-yl)phenyl)((trans-4-(4-methoxy-3-methylphenyl)cyclohexyl)methyl)carbamoyl)cyclohexyl)propanoic acid], the EC50 is at most 50 nM.
